Here are results for twelve molecules from patent US10150757B2, “Quinazolinone derivatives as PARP inhibitors” (Janssen Pharmaceutica NV, priority 2004, dated 2018).

The test system of data set [1] is ischemia and reperfusion of the heart. The following applies: rabbits, cited from earlier work.
Data set [2] has as its system colitis. The following applies: rats, colitis by intraluminal trinitrobenzene sulfonic acid in 50% ethanol; cited from earlier work.
The target in data set [3] is T1, TANK-2 enzyme (Homo sapiens, UniProt Q9H2K2).
T1 construct: made in house
T1 sequence (Q9H2K2 1-1166): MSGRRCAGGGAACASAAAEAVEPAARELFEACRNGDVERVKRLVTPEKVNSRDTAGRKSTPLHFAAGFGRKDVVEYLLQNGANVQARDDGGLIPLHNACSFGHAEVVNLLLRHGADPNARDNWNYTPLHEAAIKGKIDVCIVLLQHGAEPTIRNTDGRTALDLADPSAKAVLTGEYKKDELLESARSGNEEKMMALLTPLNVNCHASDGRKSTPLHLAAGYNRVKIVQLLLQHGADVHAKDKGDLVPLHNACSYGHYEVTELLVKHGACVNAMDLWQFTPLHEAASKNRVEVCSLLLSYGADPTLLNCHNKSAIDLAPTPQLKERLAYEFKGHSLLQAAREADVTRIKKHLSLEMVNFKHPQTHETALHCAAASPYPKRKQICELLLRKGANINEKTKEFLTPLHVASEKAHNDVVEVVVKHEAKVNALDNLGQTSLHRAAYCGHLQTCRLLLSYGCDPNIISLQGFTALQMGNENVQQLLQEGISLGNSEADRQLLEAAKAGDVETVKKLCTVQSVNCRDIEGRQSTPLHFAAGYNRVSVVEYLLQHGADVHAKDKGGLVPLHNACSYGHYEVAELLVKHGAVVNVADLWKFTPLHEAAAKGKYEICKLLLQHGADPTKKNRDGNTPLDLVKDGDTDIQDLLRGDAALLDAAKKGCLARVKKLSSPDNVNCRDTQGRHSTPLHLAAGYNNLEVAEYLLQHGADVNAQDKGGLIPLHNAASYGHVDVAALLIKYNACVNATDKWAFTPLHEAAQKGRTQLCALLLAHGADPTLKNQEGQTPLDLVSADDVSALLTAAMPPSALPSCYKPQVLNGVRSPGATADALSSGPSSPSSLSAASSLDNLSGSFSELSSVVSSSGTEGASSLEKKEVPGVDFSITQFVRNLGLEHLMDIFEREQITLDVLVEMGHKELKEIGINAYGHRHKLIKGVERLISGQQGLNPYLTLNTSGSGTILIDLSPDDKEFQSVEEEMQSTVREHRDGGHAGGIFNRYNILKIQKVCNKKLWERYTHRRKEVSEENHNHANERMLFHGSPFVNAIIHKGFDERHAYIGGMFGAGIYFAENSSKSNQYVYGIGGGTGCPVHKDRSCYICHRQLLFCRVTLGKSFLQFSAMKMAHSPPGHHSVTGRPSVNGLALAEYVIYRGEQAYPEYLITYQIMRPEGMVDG
As to the kind of experiment: In vitro scintillation proximity assay (SPA) for TANK-2 inhibitory activity. It counts as biochemical. The following applies: auto-poly(ADP-ribosyl)ation; 96-well plate results if available, otherwise 384-well; read-out: in vitro SPA assay TANK-2 pIC50 (converted). Here is the method:
In Vitro Scintillation Proximity Assay (SPA) for TANK-2 Inhibitory Activity
Compounds of the present invention were tested in an in vitro assay based on SPA technology with Ni Flash plates (96 or 384 well).
In principle, the assay relies upon SPA technology for the detection of auto-poly(ADP-ribosyl)ation of TANK-2 protein using [^3H]-nicotinamide adenine dinucleotide ([^3H]-NAD^+) as ADP-ribosyl donor.
A stock solution of [^3H]-NAD^+/NAD was made by adding 64.6 μl of [^3H]-NAD^+ (0.1 mCi/ml, supplier: Perkin Elmer) and 46.7 μl NAD-stock (10.7 mM, stored at −20° C., supplier Roche) to 1888.7 μl assay buffer (60 mM Tris/HCl, pH 7.4; 0.9 mM DTT; 6 mM MgCl2). The TANK-2 enzyme was produced as described in EP1238063. 60 μl of assay buffer, together with 1 μl of compound in DMSO, 20 μl of [^3H]-NAD^+/NAD and 20 μl of TANK-2 enzyme (final concentration 6 μg/ml) was added per well into a 96-well Ni-coated flash plate (Perkin Elmer). After incubation of the mixture for 120 min. at room temperature, the reaction was terminated by adding 60 μl of stop solution (42.6 mg NAD in 6 ml H2O). The plates were covered with a plate sealer and placed in a TopCountNXT™ (Packard) for scintillation counting. Values were expressed as counts per minute (cpm). For each experiment, controls (containing TANK-2 enzyme and DMSO without compound), a blank incubation (containing DMSO but no TANK-2 enzyme or compound) and samples (containing TANK-2 enzyme and compound dissolved in DMSO) were run in parallel. All compounds tested were dissolved and eventually further diluted in DMSO. In first instance, compounds were tested at a concentration of 10^−5M. […] In each test, the blank value was subtracted from both the control and the sample values. The control sample represented maximal TANK-2 enzyme activity. For each sample, the amount of cpm was expressed as a percentage of the mean cpm value of the controls. When appropriate, IC50-values (concentration of the drug, needed to reduce the TANK-2 enzyme activity to 50% of the control) were computed using linear interpolation between the experimental points just above and below the 50% level. Herein the effects of test compounds are expressed as pIC50 (the negative log value of the IC50-value). As reference compounds, 3-aminobenzamide and 4-amino-1,8-naphthalimide were included to validate the SPA assay. Herein the assay was described using 96-well plates. In the assay using 384-well plates the same final concentrations were used and volumes were adapted.
Background: In a scintillation proximity assay essentially only radioactivity close to the scintillant gives light.

Data set [4] concerns the target PARP-1 enzyme (Homo sapiens, UniProt P09874). As to the kind of experiment: In vitro scintillation proximity assay (SPA) for PARP-1 inhibitory activity. The class given is biochemical. The following applies: [3H]-NAD+, biotinylated histones, nicked DNA; read-out: in vitro SPA assay PARP-1 pIC50 (converted). The method, then:
In Vitro Scintillation Proximity Assay (SPA) for PARP-1 Inhibitory Activity
Compounds of the present invention were tested in an in vitro assay based on SPA technology (proprietary to Amersham Pharmacia Biotech).
In principle, the assay relies upon the well established SPA technology for the detection of poly(ADP-ribosyl)ation of biotinylated target proteins, i.e histones. This ribosylation is induced using nicked DNA activated PARP-1 enzyme and [^3H]-nicotinamide adenine dinucleotide ([^3H]-NAD^+) as ADP-ribosyl donor.
As inducer of PARP-1 enzyme activity, nicked DNA was prepared. For this, 25 mg of DNA (supplier: Sigma) was dissolved in 25 ml DNAse buffer (10 mM Tris-HCl, pH 7.4; 0.5 mg/ml Bovine Serum Albumine (BSA); 5 mM MgCl2.6H2O and 1 mM KCl) to which 50 μl DNAse solution (1 mg/ml in 0.15M NaCl) was added. After an incubation of 90 min. at 37° C., the reaction was terminated by adding 1.45 g NaCl, followed by a further incubation at 58° C. for 15 min. The reaction mixture was cooled on ice and dialysed at 4° C. for respectively 1.5 and 2 hours against 1.5 l of 0.2M KCl, and twice against 1.5 l of 0.01M KCl for 1.5 and 2 h respectively. The mixture was aliquoted and stored at −20° C. Histones (1 mg/ml, type II-A, supplier: Sigma) were biotinylated using the biotinylation kit of Amersham and stored aliquoted at −20° C. A stock solution of 100 mg/ml SPA poly(vinyl toluene) (PVT) beads (supplier: Amersham) was made in PBS. A stock solution of [^3H]-NAD^+ was made by adding 120 μl of [^3H]-NAD^+ (0.1 mCi/ml, supplier: NEN) to 6 ml incubation buffer (50 mM Tris/HCl, pH 8; 0.2 mM DTT; 4 mM MgCl2). A solution of 4 mM NAD^+ (supplier: Roche) was made in incubation buffer (from a 100 mM stock solution in water stored at −20° C.). The PARP-1 enzyme was produced using art known techniques, i.e. cloning and expression of the protein starting from human liver cDNA. Information concerning the used protein sequence of the PARP-1 enzyme including literature references can be found in the Swiss-Prot database under primary accession number P09874. Biotinylated histones and PVT-SPA beads were mixed and pre-incubated for 30 min. at room temperature. PARP-1 enzyme (concentration was lot dependent) was mixed with the nicked DNA and the mixture was pre-incubated for 30 min. at 4° C. Equal parts of this histones/PVT-SPA beads solution and PARP-1 enzyme/DNA solution were mixed and 75 μl of this mixture together with 1 μl of compound in DMSO and 25 μl of [^3H]-NAD^+ was added per well into a 96-well microtiterplate. The final concentrations in the incubation mixture were 2 μg/ml for the biotinylated histones, 2 mg/ml for the PVT-SPA beads, 2 μg/ml for the nicked DNA and between 5-10 μg/ml for the PARP-1 enzyme. After incubation of the mixture for 15 min. at room temperature, the reaction was terminated by adding 100 μl of 4 mM NAD^+ in incubation buffer (final concentration 2 mM) and plates were mixed.
The beads were allowed to sediment for at least 15 min. and plates transferred to a TopCountNXT™ (Packard) for scintillation counting, values were expressed as counts per minute (cpm). For each experiment, controls (containing PARP-1 enzyme and DMSO without compound), a blank incubation (containing DMSO but no PARP-1 enzyme or compound) and samples (containing PARP-1 enzyme and compound dissolved in DMSO) were run in parallel. All compounds tested were dissolved and eventually further diluted in DMSO. In first instance, compounds were tested at a concentration of 10^−5M. […] In each test, the blank value was subtracted from both the control and the sample values. The control sample represented maximal PARP-1 enzyme activity. For each sample, the amount of cpm was expressed as a percentage of the mean cpm value of the controls. […] Herein the effects of test compounds are expressed as pIC50 (the negative log value of the IC50-value).

Sequence of PARP-1 enzyme (P09874 whole entry): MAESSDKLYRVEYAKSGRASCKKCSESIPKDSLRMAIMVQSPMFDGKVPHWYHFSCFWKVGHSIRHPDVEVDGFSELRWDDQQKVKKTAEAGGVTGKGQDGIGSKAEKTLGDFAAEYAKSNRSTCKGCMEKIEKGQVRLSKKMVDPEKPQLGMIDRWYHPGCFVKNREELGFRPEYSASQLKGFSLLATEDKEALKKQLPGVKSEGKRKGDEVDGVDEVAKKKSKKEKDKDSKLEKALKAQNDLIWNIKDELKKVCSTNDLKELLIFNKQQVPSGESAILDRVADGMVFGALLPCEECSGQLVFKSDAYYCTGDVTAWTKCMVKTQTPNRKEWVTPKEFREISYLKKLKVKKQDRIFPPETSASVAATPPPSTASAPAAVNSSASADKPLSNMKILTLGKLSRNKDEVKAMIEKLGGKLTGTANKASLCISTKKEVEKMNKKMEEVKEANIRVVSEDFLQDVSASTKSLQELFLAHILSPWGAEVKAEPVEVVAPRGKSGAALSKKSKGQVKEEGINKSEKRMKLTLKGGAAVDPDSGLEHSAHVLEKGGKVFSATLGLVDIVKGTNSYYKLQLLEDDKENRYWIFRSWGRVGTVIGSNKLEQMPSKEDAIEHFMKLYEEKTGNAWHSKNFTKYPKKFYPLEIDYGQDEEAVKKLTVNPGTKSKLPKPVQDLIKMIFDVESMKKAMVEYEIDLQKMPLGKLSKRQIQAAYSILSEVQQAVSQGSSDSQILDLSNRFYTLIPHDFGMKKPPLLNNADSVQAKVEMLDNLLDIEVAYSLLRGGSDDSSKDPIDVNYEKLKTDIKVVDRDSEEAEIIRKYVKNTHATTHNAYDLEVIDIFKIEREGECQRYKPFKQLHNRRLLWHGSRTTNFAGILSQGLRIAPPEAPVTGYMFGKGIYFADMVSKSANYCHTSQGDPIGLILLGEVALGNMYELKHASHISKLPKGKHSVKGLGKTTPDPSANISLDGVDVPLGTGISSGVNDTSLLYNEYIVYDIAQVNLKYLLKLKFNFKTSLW

For the molecule `CCc1cc2cc(CN3CCN(CCNc4nc5ccccc5c(=O)[nH]4)CC3)ccc2nc1OC` (hydrate or solvate) [Compound 3], the melting point was 118 °C. For the molecule `Oc1cccc2c(O)nccc12` [1,5-dihydroxyisoquinoline], the reduced infarct size in data set [1] (single injection 1 mg/kg) was 38-48%. On to `NC(=O)c1cccc(N)c1` [3-amino-benzamide], for which, in data set [1] (single injection 10 mg/kg, one minute before occlusion or one minute before reperfusion), the “reductions in infarct size in the heart” value is given as 32-42%. Moreover, the “inflammatory response, morphology and energetic status of the distal colon” value in data set [2] was “reduced the inflammatory response and restored the morphology and the energetic status of the distal colon”. In the case of `CC1(C)Cc2cc(Cl)cc(C(=O)NC3CCN(CCCNc4nc(O)c5ccccc5n4)CC3)c2O1` [Compound 11], the IC50 in data set [3] was over 10 µM. Still for that read-out and setting: in the case of `CC1(C)Cc2cc(Cl)cc(C(=O)NC3CCN(CCNc4nc(O)c5ccccc5n4)CC3)c2O1` [Compound 12] it was over 10 µM; in that of `CO[C@H]1CN(CCNc2nc(O)c3ccccc3n2)CC[C@H]1NC(=O)c1cc(Cl)cc2c1OC(C)(C)C2` [Compound 13], over 10 µM. Regarding `CO[C@@H]1CN(CCCNc2nc(O)c3cc(Cl)ccc3n2)CC[C@@H]1NC(=O)c1cc(Cl)c(N)c2c1OC(C)(C)C2` [Compound 16], the IC50 in data set [3] was over 10 µM. Consider `CO[C@@H]1CN(CCCNc2nc(O)c3ccc(Cl)cc3n2)CC[C@@H]1NC(=O)c1cc(Cl)c(N)c2c1OC(C)(C)C2` [Compound 17], for which the IC50 in data set [3] was over 10 µM. With `O=c1[nH]c(NCCN2CCN(c3n[nH]c4ccccc34)CC2)nc2ccccc12` [Compound 19], the IC50 in data set [3] is over 10 µM. On to `COc1cc2nc(NCCN3CCN(c4n[nH]c5ccccc45)CC3)[nH]c(=O)c2cc1OC` [Compound 32], for which, in data set [4], the IC50 is 0.0452 µM.

Take `Cc1cccc2nc(NCCN3CCC(c4n[nH]c5cc(F)ccc45)CC3)[nH]c(=O)c12` [Compound 34]: the IC50 in data set [4] was 0.0217 µM. As to `O=c1[nH]c(NCCN2CCN(c3n[nH]c(=O)c4ccccc34)CC2)nc2ccccc12` [Compound 35], the IC50 in data set [4] is 0.0107 µM.

For orientation: melting point means the temperature, or range, at which the solid turns liquid.
